Entries after “also recorded” stand apart in the source; their conditions may differ.

The test system of this experiment is bacteria. The experiment can be described thus: Binding of targeting peptides to microorganisms (Table 3). To be noted: preferably 1x PBS.
Setting [1] is: peptide binding in aqueous buffers that varied depending on peptide solubility.
[2] abbreviates: microorganism bound by the targeting peptide, binding in aqueous buffers chosen by peptide solubility.
Where [3] appears, read: microorganism the targeting peptide binds, binding in aqueous buffers that varied with peptide solubility.

Regarding LVLRICTDLFTFIKWTIKQRKS [PF-497], the “Target(s) (microorganisms bound by the targeting peptide)” value under setting [1] is “S. mutans; also recorded: B. subtilis; also recorded: E. coli”.
Turning to “MKKLVAALAVIVILTGCVYDPVNYDKIHDQEFQDHLRQNG [PF-252]”, the “Target(s)” value under setting [2] is listed as “S. mutans”.
The same measure, in the same setting: the same measure for MLTSRKKRLKKIVEEQNKKDESI [PF-336]: “S. mutans; also recorded: E. coli”.
For PEIIKIVSGLL [PF-758], under setting [1], the “Target(s) (microorganism bound by the targeting peptide)” value is “S. epidermidis and M. luteus and E. coli and MRSA and S. pneumoniae and E. faecalis and C. jeikeium”.
For “PF-014 (HPTDNKHN; Peptide with targeting and/or antimicrobial activity)”, under setting [3], the “Target(s)” value is given as “E. coli; also recorded: C. jeikeium”.
Same read-out and setting: the result for “PF-016 (RKQYDDLSFNFLY; Peptide with targeting and/or antimicrobial activity)” reads “S. epidermidis; also recorded: E. faecalis; also recorded: C. jeikeium”; that for “PF-018 (YYKTYFKEV; Peptide with targeting and/or antimicrobial activity)”, “E. coli; also recorded: C. jeikeium”; that for “PF-038 (MAYKDEGKETKFAVKGYKD; Peptide with targeting and/or antimicrobial activity)”, “M. luteus”.
In the case of “PF-039 (MLEEKNKSL; Peptide with targeting and/or antimicrobial activity)”, under setting [3], the “Target(s)” value is recorded as “P. mirabilis; also recorded: C. jeikeium”.
As to “PF-044 (KLKKYIHKPD; Peptide with targeting and/or antimicrobial activity)”, the “Target(s)” value under setting [3] was “S. epidermidis and M. luteus and MRSA and C. jeikeium”.
With “PF-047 (NQEPSLQQDKEQKDNKG; Peptide with targeting and/or antimicrobial activity)”, the “Target(s)” value under setting [3] is on record as “S. mutans”.
As to “PF-050 (SYYLKRREEKGK; Peptide with targeting and/or antimicrobial activity)”, the “Target(s)” value under setting [3] was “S. epidermidis; also recorded: M. luteus; also recorded: E. coli; also recorded: C. jeikeium”.
Consider “PF-054 (VSISRFIGGGHVFNGNNKRNL; Peptide with targeting and/or antimicrobial activity)”, for which the “Target(s)” value under setting [3] is “S. epidermidis; also recorded: E. coli”.
With “PF-055 (GHVFNGNNKRNL; Peptide with targeting and/or antimicrobial activity)”, the “Target(s)” value under setting [3] is on record as “S. mutans”.
For the substance “PF-060 (HSSHL; Peptide with targeting and/or antimicrobial activity)”, the “Target(s)” value under setting [3] is on record as “E. coli; also recorded: C. albicans; also recorded: C. jeikeium”.
As for “PF-062 (MKKKRINNDILGRMIYSSSIDKRNLYNLKYYE; Peptide with targeting and/or antimicrobial activity)”, the “Target(s)” value under setting [3] is “S. epidermidis and M. luteus and E. coli and P. aeruginosa and MRSA and S. pneumoniae and E. faecalis and C. jeikeium”.
Turning to “PF-097 (QPTQGEQGTRPRRPTPMRGLLI; Peptide with targeting and/or antimicrobial activity)”, under setting [2], the “Target(s)” value is “C. jeikeium”.
Consider “PF-101 (DPVPERQEQACACHRTAKPGK; Peptide with targeting and/or antimicrobial activity)”, for which the “Target(s)” value under setting [2] was “S. mutans”.
Same read-out and setting: the result for “PF-104 (ERTAVNDLWI; Peptide with targeting and/or antimicrobial activity)” reads “MRSA and C. jeikeium”; that for “PF-130 (LQRSDEESMPRRHEKYS; Peptide with targeting and/or antimicrobial activity)”, “E. faecalis; also recorded: C. jeikeium; also recorded: C. jejuni”.
Turning to “PF-131 (RRAAARTKGNRR; Peptide with targeting and/or antimicrobial activity)”, the “Target(s)” value under setting [2] is “S. epidermidis and E. coli and MRSA and C. jeikeium”.
Same read-out and setting: the same measure for “PF-132 (RPGDGAAEQGRSR; Peptide with targeting and/or antimicrobial activity)”: “S. epidermidis; also recorded: C. jeikeium”; for “PF-134 (GKAMKRQDCSAL; Peptide with targeting and/or antimicrobial activity)”: “S. epidermidis; also recorded: C. jeikeium”.
Turning to “PF-138 (AVHHSLLFR; Peptide with targeting and/or antimicrobial activity)”, under setting [2], the “Target(s)” value was “S. epidermidis and M. luteus and P. mirabilis and E. coli and C. albicans and MRSA and C. jeikeium and C. jejuni”.
On the same count and under the same terms, the same measure for “PF-141 (VVRRFQGM; Peptide with targeting and/or antimicrobial activity)”: “S. epidermidis and M. luteus and C. albicans and MRSA and C. jeikeium”; for “PF-142 (GIDRGCQAAR; Peptide with targeting and/or antimicrobial activity)”: “S. mutans”; for “PF-146 (GCGKRRIITKSASRDTR; Peptide with targeting and/or antimicrobial activity)”: “S. epidermidis and M. luteus and P. aeruginosa and C. albicans and MRSA and C. jeikeium”.
Turning to “PF-147 (RRPRRRRSGHGQSASAA; Peptide with targeting and/or antimicrobial activity)”, under setting [2], the “Target(s)” value is “S. epidermidis and M. luteus and MRSA”.
Consider “PF-150 (EIQAKGTG; Peptide with targeting and/or antimicrobial activity)”, for which the “Target(s)” value under setting [2] is “S. epidermidis and MRSA”.
On the same count and under the same terms, the result for “PF-151 (EEYPARVPLSGEDVTEARRH; Peptide with targeting and/or antimicrobial activity)” reads “S. epidermidis and MRSA and E. faecalis and C. jeikeium”; that for “PF-152 (VGYFIWKDSHSRKG; Peptide with targeting and/or antimicrobial activity)”, “S. epidermidis and C. albicans and MRSA and E. faecalis and C. jeikeium”; that for “PF-154 (GIKKSKHPSTDDYVVKTTIDSL; Peptide with targeting and/or antimicrobial activity)”, “S. mutans”.
Take “PF-155 (GRYGDDSKERQGRAQ; Peptide with targeting and/or antimicrobial activity)”: the “Target(s)” value under setting [2] is given as “C. jeikeium”.
In the case of “PF-158 (VRLESRPADLPE; Peptide with targeting and/or antimicrobial activity)”, under setting [2], the “Target(s)” value is reported as “S. epidermidis”.
On to “PF-159 (TMAFVEKAQLRVPVGDDLPV; Peptide with targeting and/or antimicrobial activity)”, for which the “Target(s)” value under setting [2] is on record as “S. epidermidis”.
As for “PF-160 (SFHASLTKNEKPIKSTG; Peptide with targeting and/or antimicrobial activity)”, the “Target(s)” value under setting [2] was “S. epidermidis”.
Consider “PF-161 (RGRALASTATTRPARRRR; Peptide with targeting and/or antimicrobial activity)”, for which, under setting [2], the “Target(s)” value was “S. epidermidis; also recorded: M. luteus; also recorded: E. coli; also recorded: C. jejuni”.
On to “PF-162 (GIRRLHSVENLNREISHRMAGLR; Peptide with targeting and/or antimicrobial activity)”, for which the “Target(s)” value under setting [2] was “S. epidermidis and MRSA”.
In the case of “PF-163 (TSWLRAAERQEIGEPTKTFGEKTTSL; Peptide with targeting and/or antimicrobial activity)”, under setting [2], the “Target(s)” value is recorded as “S. epidermidis”.

(Values after patent US9597407B2, “Targeted antimicrobial moieties” (C3 Jian, Inc., priority 2009, dated 2017).)
